From patent publication US5221669A, “Antiviral compositions containing α-cyclodextrin sulfates alone and in combination with other known antiviral agents and glucocorticoids and methods of treating viral infections” (The United States of America as represented by the …, priority 1991, dated 1993)
Values joined by “and” are separate entries in the source; they are usually repeats but may differ in a detail not shown here. Identical values can stand only once. Like-named read-outs stand apart in the source and are kept apart here.

How the values were obtained:
PMNCs [1] = conditions: for % <Decrease (viable cells): decrease vs control; for Viable cells: controls 118 and 106; for % >Increase (viable cells): increase vs control
Description: Uninfected PMNCs, drug-treated PMNCs, and drug-treated and virus-infected PMNCs in different experiments were tested for drug toxicity and for the alterations in the numbers of viable cells in response to drug treatment by trypan blue exclusion method.
To understand the mechanism of virus enhancement and to evaluate the toxicity of the sulphated sugars to PMNCs in culture, cell viability counts were performed on trypan blue-stained cells.

HIV-1 = HIV-1 replication in PHA-stimulated PMNC cultures, RT method on culture supernatants; conditions: for Virus-enhancement effect: low drug concentrations; for Increase in virus production: concentrations of 1.0 μg ml^-1 or less
Description: Phytohaemagglutinin stimulated human peripheral blood mononuclear cells (PHA-PMNCs) were exposed to A-CDS and PPS and infected with HIV-1 as follows. PMNCs stimulated with 10.0 μg ml^-1 of PHA were further propagated in Medium B (RPMI-1640 medium with 10% fetal calf serum, 10% T-cell growth factor, and 1:500 goat antibody to human Interferon) at 10^8 cells ml^-1 in 20 ml and were exposed to different concentrations of drugs and simultaneously infected with 10000 c.p.m. ml^-1 of HIV-1 in 20 ml/culture flask. Cultures were tested for the quantity of cell-free virus in the culture supernatants using the RT method. RT activity in the disrupted virions was tested by using exogenous template poly (rA).(dT)12-18 as described (Anand et al., (1988), supra. The reaction mixture consisted of 50mM Tris-hydrochloride (pH 7.5), 5mM dithiothreitol 100mM KCI, 10mM MgClhd 2, 10 μM [^3 H]-TTP, Triton X-100 containing poly (rA).(dT)12-18 at 30 μg ml^-1 (mcg ml^-1). The reaction mixture was incubated at 37° C. for 2 hours, and [^3 H]-TTP incorporated into polymers was precipitated with 10% trichloroacetic acid, collected on a glass fibre filter, and counted in an LKB 1219 Rackbeta scintillation counter. Various cultures in the experiment are represented: .quadrature.-.quadrature., A-CDS; .smallcircle.-.smallcircle., PPS; .smallcircle.-.smallcircle., B-CDS. The values are means of two determinations tested in two separate experiments. The range of variation was no greater than 15%.
After two days, PMNCs were infected and studied for the change in virus replication in the presence of drugs and for the direct effect of drugs on cell multiplication.
PMNCs stimulated with PHA were further propagated in Medium B(RPMI-1640 with 10% fetal calf serum. 10% T-cell growth factor and 1:500 diluted goat antibody to human interferon). […] In general, four hours after injection and drug treatment, cultures were centrifuged to remove the extracellular virus and the cells were resuspended in fresh Medium B and replenished with appropriate drug concentrations. The percent change in virus replication was calculated as (x-c)/c×100, where x represented the experimental value and c represented the control value.
Reduction in RT activity was a reflection of the inhibition of virus production and therefore virus replication. The virus was prepared from the drug-treated and untreated culture supernatants.
Cultures were infected with virus and treated with the drugs simultaneously and were tested to evaluate the amount of virus production by the reverse transcriptase (RT) method.

PMNCs [2] = test: Cell proliferation (cell count) with hydrocortisone phosphate and α-cyclodextrin sulfate; assay type: cell-based, human
Description: Anti-HIV Effects of Sulphated Sugars in Presence of Glucocorticoids. HIV infections are at some later stages invariably complicated by pathologies which involve neovascularization, particularly those associated with Kaposi's sarcoma. Previously, Folkman et al., Science 243, 1490-1493, 1989, observed that B-CDS stimulates this particular pathology, but that this side-effect can be suppressed by glucocorticoids. […] Thus, pathological neovascularization can be avoided without comprising the anti-HIV effects.

[3] = biological target: T1, reverse transcriptase enzyme of detergent-disrupted LAV-1BRU isolate (Human immunodeficiency virus type 1 (BRU ISOLATE), UniProt P03367); test: Direct effect on reverse transcriptase enzyme activity of detergent-disrupted virus; assay type: biochemical; conditions: for Inhibition of RT enzyme activity: concentrations tested up to 25.0 μg ml^-1; for RT activity: control 180; for % >Increase (RT activity): increase vs control; for % <Decrease (RT activity): decrease vs control
T1 construct: poly(rA).oligo(dT) template
Description: Microb. Agents Chemother. 32:684-688 (1988).
The direct effect of A-CDS, B-CDS and PPS on the reverse transcriptase enzyme activity by treating a detergent-disrupted LAV-1BRU isolate with these drugs and subjecting it to the RT method was examined.

HIV-1 p24 antigen = test: p24 antigen ELISA in supernatant-free lysed cells; assay type: cell-based; conditions: supernatant-free lysed cells after exposure
Description: Intracellular changes in the amount of HIV-1 following exposure to PPS were studied by measuring p24 antigen in the supernatant-free lysed cells.

[4] = hydrocortisone phosphate 5 μg/ml alone
[5] = α-cyclodextrin sulfate 2.5 μg/ml alone
[6] = α-cyclodextrin sulfate 5.0 μg/ml alone
[7] = α-cyclodextrin sulfate 10.0 μg/ml alone

Compound: Cc1cn([C@H]2C[C@H](N=[N+]=[N-])[C@@H](CO)O2)c(=O)[nH]c1=O [AZT, 3'-azido-2',3'-dideoxythy-midine]
- % <Decrease (viable cells) (PMNCs [1]; 10nM): 35%
- Viable cells (PMNCs [1]): 72 10^4 ml^-1
- Replication (fold decrease) (HIV-1; AZT 10 nM alone): 1.2 fold decrease
- RT activity (HIV-1; AZT 10 nM alone, control 164): 134 c.p.m. × 10^3 ml^-1

Compound: C[C@]12CCC(=O)C=C1CC[C@@H]1[C@@H]2[C@@H](O)C[C@@]2(C)[C@H]1CC[C@]2(O)C(=O)COP(=O)(O)O [hydrocortisone phosphate]
- Cell Count in million per mL (PMNCs [2]; [4]): 1.2 million per mL and 1.0 million per mL
- Inhibition of HIV-1 reverse transcriptase activity (%) (HIV-1; [4]): 39% and 20%

Compound: .varies.-cyclodextrin sulphate [A-CDS]
- Inhibition of RT enzyme activity [3]: No inhibition
- Viable cells (PMNCs [1]; conc. 0.1 μg ml^-1): 140 10^4 ml^-1
- % >Increase (viable cells) (PMNCs [1]; conc. 0.1 μg ml^-1): 25%
- Viable cells (PMNCs [1]; conc. 0.5 μg ml^-1): 128 10^4 ml^-1
- % >Increase (viable cells) (PMNCs [1]; conc. 0.5 μg ml^-1): 14%
- Cell Count in million per mL (PMNCs [2]; [5]): 1.2 million per mL
- Cell Count in million per mL (PMNCs [2]; [6]): 1.3 million per mL
- Cell Count in million per mL (PMNCs [2]; [7]): 1.5 million per mL
- Inhibition of HIV-1 replication in PMNC cultures (HIV-1): potent inhibitors
- Replication (fold decrease) (HIV-1; A-CDS 0.5 μg ml^-1 alone): 2.8 fold decrease
- RT activity (HIV-1; A-CDS 0.5 μg ml^-1 alone, control 164): 57 c.p.m. × 10^3 ml^-1
- Replication (fold decrease) (HIV-1; A-CDS 1.5 μg ml^-1 alone): 4.9 fold decrease
- RT activity (HIV-1; A-CDS 1.5 μg ml^-1 alone, control 164): 33 c.p.m. × 10^3 ml^-1
- Relative anti-HIV potency from the dose-response relationship (HIV-1; PMNC cultures, infected and treated simultaneously): more potent in anti-HIV action than PPS, B-CDS and DS
- Virus-enhancement effect (HIV-1): lacks the virus-enhancement effect
- Inhibition of HIV-1 reverse transcriptase activity (%) (HIV-1; α-cyclodextrin sulfate 0.5 μg/ml alone): 77%
- Inhibition of HIV-1 reverse transcriptase activity (%) (HIV-1; α-cyclodextrin sulfate 1.0 μg/ml alone): 72%
- Inhibition of HIV-1 reverse transcriptase activity (%) (HIV-1; [5]): 80%
- Inhibition of HIV-1 reverse transcriptase activity (%) (HIV-1; [6]): 83%
- Inhibition of HIV-1 reverse transcriptase activity (%) (HIV-1; [7]): 91%

Compound: Pentosan polysulfate [PPS]
- Enhancement of the RT reaction ([3]; 0.1 and 0.5 μg ml^-1): enhancement of the reaction
- RT activity ([3]; drug conc. 0.1 μg ml^-1): 194 c.p.m. × 10^3 ml^-1
- % >Increase (RT activity) ([3]; drug conc. 0.1 μg ml^-1): 7.7%
- RT activity ([3]; drug conc. 0.5 μg ml^-1): 219 c.p.m. × 10^3 ml^-1
- % >Increase (RT activity) ([3]; drug conc. 0.5 μg ml^-1): 21.6%
- RT activity ([3]; drug conc. 2.0 μg ml^-1): 163 c.p.m. × 10^3 ml^-1
- % <Decrease (RT activity) ([3]; drug conc. 2.0 μg ml^-1): 9.4%
- RT activity ([3]; drug conc. 4.0 μg ml^-1): 22 c.p.m. × 10^3 ml^-1
- % <Decrease (RT activity) ([3]; drug conc. 4.0 μg ml^-1, 120 min): 87% and 87.7%
- RT activity ([3]; drug conc. 5.0 μg ml^-1): 17 c.p.m. × 10^3 ml^-1
- RT activity ([3]; drug conc. 6.0 μg ml^-1): 17 c.p.m. × 10^3 ml^-1
- % <Decrease (RT activity) ([3]; drug conc. 6.0 μg ml^-1, 120 min): 90.5%
- RT activity ([3]; drug conc. 8.0 μg ml^-1): 9 c.p.m. × 10^3 ml^-1
- % <Decrease (RT activity) ([3]; drug conc. 8.0 μg ml^-1, 120 min): 95.0%
- RT activity ([3]; drug conc. 10.0 μg ml^-1): 7 c.p.m. × 10^3 ml^-1
- % <Decrease (RT activity) ([3]; drug conc. 10.0 μg ml^-1, 120 min): 97.7%
- RT activity ([3]; drug conc. 15.0 μg ml^-1): 4 c.p.m. × 10^3 ml^-1
- % <Decrease (RT activity) ([3]; drug conc. 15.0 μg ml^-1, 120 min): 97.7%
- RT activity ([3]; drug conc. 20.0 μg ml^-1): 2 c.p.m. × 10^3 ml^-1
- % <Decrease (RT activity) ([3]; drug conc. 20.0 μg ml^-1, 120 min): 99.8%
- RT activity ([3]; drug conc. 25.0 μg ml^-1): 1 c.p.m. × 10^3 ml^-1
- % <Decrease (RT activity) ([3]; drug conc. 25.0 μg ml^-1, 120 min): 99.4%
- Viable cells (PMNCs [1]; conc. 0.1 μg ml^-1): 268 10^4 ml^-1
- % >Increase (viable cells) (PMNCs [1]; conc. 0.1 μg ml^-1): 141%
- Viable cells (PMNCs [1]; conc. 0.5 μg ml^-1): 202 10^4 ml^-1
- % <Decrease (viable cells) (PMNCs [1]; conc. 0.5 μg ml^-1): 80%
- Lymphoproliferative effect, increase in cell numbers relative to control cultures (PMNCs [1]; particularly at low drug concentrations): more lymphoproliferative activity than B-CDS and A-CDS
- Protective effect on infected cells from HIV-associated cytopathic effect (PMNCs [1]; virus-infected PMNCs, relative to virus-infected drug-free cultures): more than A-CDS and B-CDS
- HIV-specific p24 in the cells (HIV-1 p24 antigen): decrease in HIV-specific p24 in the cells
- Inhibition of HIV-1 replication in PMNC cultures (HIV-1): potent inhibitors
- Replication <% decrease (HIV-1; PPS 2.0 μg ml^-1 alone): 77.0%
- RT activity (HIV-1; PPS 2.0 μg ml^-1 alone, control 187): 43 c.p.m. × 10^3 ml^-1
- Increase in virus production (HIV-1): up to a three-fold increase in virus production
- Virus-enhancement effect (HIV-1): virus-enhancement effect

Compound: dextran sulphate [DS]
- Viable cells (PMNCs [1]; conc. 0.1 μg ml^-1): 170 10^4 ml^-1
- % <Decrease (viable cells) (PMNCs [1]; conc. 0.1 μg ml^-1): 51%
- Viable cells (PMNCs [1]; conc. 0.5 μg ml^-1): 90 10^4 ml^-1
- % >Increase (viable cells) (PMNCs [1]; conc. 0.5 μg ml^-1): 19%
- Virus-enhancement effect (HIV-1): virus-enhancement effect

Compound: β-cyclodextrin sulphate [B-CDS]
- Inhibition of RT enzyme activity [3]: No inhibition
- Viable cells (PMNCs [1]; conc. 0.1 μg ml^-1): 188 10^4 ml^-1
- % >Increase (viable cells) (PMNCs [1]; conc. 0.1 μg ml^-1): 67%
- Viable cells (PMNCs [1]; conc. 0.5 μg ml^-1): 140 10^4 ml^-1
- % >Increase (viable cells) (PMNCs [1]; conc. 0.5 μg ml^-1): 25%
- Inhibition of HIV-1 replication in PMNC cultures (HIV-1): potent inhibitors
- Replication <% decrease (HIV-1; B-CDS 2.5 μg ml^-1 alone): 40.1%
- RT activity (HIV-1; B-CDS 2.5 μg ml^-1 alone, control 187): 112 c.p.m. × 10^3 ml^-1
- Increase in virus production (HIV-1): up to a three-fold increase in virus production
- Virus-enhancement effect (HIV-1): virus-enhancement effect
